Laboratory results reported in the PolyMetriX glass transition set.
± gives the standard deviation of the reports.

Row | glass transition temperature | SMILES
1 | 208.00 °C | *CCN(CCOC(=O)c1ccc(C(=O)O*)cc1)c1ccc(-c2nc3ccc([N+](=O)[O-])cc3o2)cc1 (repeat unit)
2 | 243.00 °C | *Oc1ccc(NC(=O)c2ccc(C(=O)Nc3ccc(Oc4ccc(C(c5ccc(*)cc5)(C(F)(F)F)C(F)(F)F)cc4)cc3)cc2)cc1 (repeat unit)
3 | 40.00 °C | *CCCCCCCCCCCCCCNC(=O)NCCCCCCCCCCNC(=O)N* (repeat unit)
4 | 225.00 °C | */C(=N\c1ccccc1)c1ccc(-c2ccc(*)cc2)cc1 (repeat unit)
5 | 291.00 °C | *c1cccc(C(=O)Nc2ccc(Oc3ccc(NC(=O)c4cccc(N5C(=O)c6ccc(-c7cccc8c7C(=O)N(*)C8=O)cc6C5=O)c4)cc3)cc2)c1 (repeat unit)
6 | 283.00 °C | *c1ccc(Oc2ccc(C(=O)c3ccc(Oc4ccc(-c5c6c(c(*)c7ccccc57)C(=O)N(C)C6=O)cc4)cc3)cc2)cc1 (repeat unit)
7 | 31.90 °C | *CCN(CCOC(=O)NCCCCCCNC(=O)O*)c1ccccc1 (repeat unit)
8 | 109.00 °C | *CCOCCOCCN1C(=O)c2ccc(C(=O)Oc3ccc(-c4ccc(OC(=O)c5ccc6c(c5)C(=O)N(*)C6=O)cc4)cc3)cc2C1=O (repeat unit)
9 | 163.00 °C | *Oc1ccc(/C=N/N=C/c2ccc(Oc3ccc(C(C)(C)c4ccc(*)cc4)cc3)cc2)cc1 (repeat unit)
10 | 294.00 °C | *C(=O)c1ccc2c(c1)C(=O)N(c1cccc(C#Cc3cccc(N4C(=O)c5ccc(*)cc5C4=O)c3)c1)C2=O (repeat unit)
11 | 22.00 °C | *CCCOC(=O)NNC(=O)CCCCCCCCC(=O)NNC(=O)O* (repeat unit)
12 | 142.50 °C | *CC(O)COc1ccc(S(=O)(=O)c2ccc(OCC(O)COc3ccc(S(=O)(=O)c4ccc(O*)c(C)c4)cc3C)cc2)cc1 (repeat unit)
13 | 29.00 °C | *CC(F)(F)C(F)(F)C(F)(F)COC(=O)c1cccc(C(F)(F)C(F)(F)C(F)(F)C(F)(F)C(F)(F)c2cccc(C(=O)O*)c2)c1 (repeat unit)
14 | 330.00 °C | *C(=O)Nc1ccc(Oc2ccc(C3(c4ccc(Oc5ccc(NC(=O)c6ccc7c(c6)C(=O)N(c6ccc(Oc8ccc(C9(c%10ccc(Oc%11ccc(N%12C(=O)c%13ccc(*)cc%13C%12=O)cc%11)cc%10)NC(=O)c%10ccccc%109)cc8)cc6)C7=O)cc5)cc4)NC(=O)c4ccccc43)cc2)cc1 (repeat unit)
15 | 225.00 °C | *C(=O)NCCCCCCNC(=O)c1ccc(N2C(=O)c3ccc(*)cc3C2=O)cc1 (repeat unit)
16 | 227.00 °C | *Oc1ccc2ccc(Oc3ccc(C(=O)Nc4ccc(Oc5ccc(S(=O)(=O)c6ccc(Oc7ccc(NC(=O)c8ccc(*)cc8)cc7)cc6)cc5)cc4)cc3)cc2c1 (repeat unit)
17 | 350.00 °C | *c1ccc(-c2cnc3cc(-c4ccc5nc(*)cnc5c4)ccc3n2)cc1 (repeat unit)
18 | 50.00 °C | *Oc1ccc(CC(NC(=O)Cc2ccc(OC(=O)COCCOCC(*)=O)cc2)C(=O)OCC)cc1 (repeat unit)
19 | 108.00 °C | *CC(*)(C)C(=O)OCC1(C)COC(C)(C)OC1 (repeat unit)
20 | 261.00 °C | *c1cccc(C(=O)Nc2ccc(Oc3ccc(C(C)(C)c4ccc(Oc5ccc(NC(=O)c6cccc(N7C(=O)c8ccc(-c9cccc%10c9C(=O)N(*)C%10=O)cc8C7=O)c6)cc5)cc4)cc3)cc2)c1 (repeat unit)
21 | 254.00 °C | *C(=O)Nc1ccc(Oc2ccc(-c3ccc(Oc4ccc(NC(=O)c5ccc6c(c5)C(=O)N(c5ccc(Oc7ccccc7-c7ccccc7Oc7ccc(N8C(=O)c9ccc(*)cc9C8=O)cc7)cc5)C6=O)cc4)cc3)cc2)cc1 (repeat unit)
22 | 61.00 °C | *CC(*)OC(=O)c1ccc(OC(=O)CCC)cc1 (repeat unit)
23 | 218.20 °C | *Nc1ccc(-c2ccc(NC(=O)c3cccc(C(*)=O)c3)c(OC)c2)cc1OC (repeat unit)
24 | 174.00 °C | *CCCCCCN(CC(F)(F)C(F)(F)F)C(=O)C(F)(F)C(F)(F)C(F)(F)C(=O)N(*)CC(F)(F)C(F)(F)F (repeat unit)
25 | 163.00 °C | *Oc1ccc(S(=O)(=O)c2ccc(Oc3ccc(C(C)(CCC(=O)O)c4ccc(*)cc4)cc3)cc2)cc1 (repeat unit)
26 | 57.00 °C | *COCOc1ccc(C(=O)OC(=O)c2ccc(O*)cc2)cc1 (repeat unit)

Row | glass transition temperature | SMILES
27 | 275.00 °C | *CC(*)c1ccc(B(Oc2ccc(B3OC(C)(C)C(C)(C)O3)c3cccnc23)c2ccc(C(C)(C)C)cc2)cc1 (repeat unit)
28 | 260.00 °C | *c1ccc(OCCN(C)c2ccc(/C=C/C3=CC(=C4/C(=O)c5ccccc5C4=C(C#N)C#N)/C=C(/C=C/c4ccc(N(C)CCOc5ccc(-c6nc7ccc(Oc8ccc9nc(*)c(-c%10ccccc%10)nc9c8)cc7nc6-c6ccccc6)cc5)cc4)O3)cc2)cc1 (repeat unit)
29 | 157.00 °C | *Oc1ccc(C(=O)c2ccc(C(=O)c3ccc(*)cc3)cc2)cc1 (repeat unit)
30 | -2.00 °C | *CCCCCCOC(=O)OCCCCCCCCCCOC(=O)OCCCCCCn1c(=O)c2cc3c(=O)n(*)c(=O)c3cc2c1=O (repeat unit)
31 | 274.00 °C | *Oc1ccc(NC(=O)c2ccc(Oc3ccc(C(=O)Nc4ccc(*)cc4)cc3)cc2)cc1 (repeat unit)
32 | 280.00 °C | *C(=O)OCCOC(=O)c1ccc(N2C(=O)c3ccc(*)cc3C2=O)cc1 (repeat unit)
33 | -3.00 °C | *CCCCCCNC(=O)CCCCCCCC1C(CCCCCCCC(=O)N*)C=CC(CCCCCC)C1CCCCCCCC (repeat unit)
34 | 142.00 °C | *NC1CCC(CC2CCC(NC(=O)CCCCCCCCCCC(*)=O)CC2)CC1 (repeat unit)
35 | 5.50 °C | *O[Si](*)(C)CCCCCCCCOc1ccc(C(=O)Oc2ccc(C#N)cc2C)cc1 (repeat unit)
36 | 155.00 °C | *C(=O)N1C(=S)N(C(=O)c2ccc3c(c2)C(=O)N(c2ccc(Oc4ccc(N5C(=O)c6ccc(*)cc6C5=O)cc4)cc2)C3=O)C(C)=C(C(=O)OCC)C1c1ccccc1 (repeat unit)
37 | 152.00 °C | *Oc1ccc(/C=C/C(=O)c2ccc(Oc3ccc(C(C)(C)c4ccc(*)cc4)cc3)cc2)cc1 (repeat unit)
38 | 20.00 °C | *O[Si](C)(C)CCCCCCOC(=O)C(C)Oc1ccc(OC(=O)c2ccc(-c3ccc(OCCCCCCCCCC[Si](*)(C)C)cc3)cc2)cc1[N+](=O)[O-] (repeat unit)
39 | 230.40 °C | *Oc1ccc(S(=O)(=O)c2ccc(Oc3ccc(C(C)(C)c4ccc(*)c(N)c4)cc3N)cc2)cc1 (repeat unit)
40 | 22.50 °C | *O[Si](*)(C)CCCCOc1ccc(-c2ccc(C#N)cc2)cc1 (repeat unit)
41 | -9.00 °C | *ON(C(F)(F)F)C(F)(C(*)(F)F)C(F)(F)F (repeat unit)
42 | 23.00 °C | *CCCCCCOC(=O)C(C(=O)OCCCCCCOc1ccc(-n2on2-c2ccc(O*)cc2)cc1)c1ccccc1 (repeat unit)
43 | 72.00 °C | *CC(=O)NCCCCCCNC(=O)CCc1ccc(O*)cc1 (repeat unit)
44 | 80.00 °C | *Oc1ccc(CC(NC(=O)CCc2ccc(OC(=O)COCC(*)=O)cc2)C(=O)OC(C)C)cc1 (repeat unit)
45 | 208.00 °C | */C(=C/c1cc(OC)c(/C=C(/c2ccc(*)cc2)c2ccc(C(F)(F)F)cc2)cc1OC)c1ccc(C(F)(F)F)cc1 (repeat unit)
46 | 60.00 °C | *CC#C/C(C#CCOC(=O)CCCCCCCCC(=O)O*)=C\c1ccc(C#Cc2ccc(C=C(C#Cc3ccccc3)C#Cc3ccccc3)cc2)cc1 (repeat unit)
47 | 140.00 °C | *Oc1ccc(Cc2ccc(OC(=O)c3ccc(C(C)(C)c4ccc(C(*)=O)cc4)cc3)cc2)cc1 (repeat unit)
48 | 39.00 °C | *CCCCCCCCCCCCCCCCOC(=O)NCCCCCCNC(=O)O* (repeat unit)
49 | 152.00 °C | *CCCC(C)(C)CCCNC(=O)c1ccc(C(=O)N*)cc1 (repeat unit)
50 | 240.00 °C | *Oc1ccc(NC(=O)c2cc(NC(=O)CCN3C(=O)c4ccccc4C3=O)cc(C(=O)Nc3ccc(*)cc3)c2)cc1 (repeat unit)
51 | -44.50 °C | *CCOCCOCCOC(=O)CCCCCC(=O)O* (repeat unit)
52 | 72.00 °C | *Oc1ccc(-c2ccc(OC(=O)c3cc(OCCCc4ccccc4)c(C(*)=O)cc3OCCCc3ccccc3)cc2)cc1 (repeat unit)

Row | SMILES | glass transition temperature
53 | *CC(*)OCCCCCC (repeat unit) [Poly(hexyl vinyl ether)] | -69.58 ± 5.8 °C
54 | *N(C)[Si](C)(C)N(C)[Si](*)(C)CC (repeat unit) | -20.00 °C
55 | *CC(*)c1ccc(F)cc1 (repeat unit) [Poly(4-fluorostyrene)] | 104 ± 4.9 °C
56 | *CC(*)C(=O)OCCCCCCCCC (repeat unit) [Poly(n-nonyl acrylate) ] | -60 ± 17 °C
57 | *Oc1cc(C)c(*)c(C)c1Br (repeat unit) | 280.1 °C
58 | *CC(C)(CO*)COCC(F)(F)F (repeat unit) | -41.00 °C
59 | *CC(*)(C)C(=O)OCC(O)CO (repeat unit) | 84.40 °C
60 | *CC(*)OCCCCCCCCCC (repeat unit) [Poly(vinyl n-decyl ether) ] | -76 ± 8.5 °C
61 | *C(=O)c1ccc2c(c1)C(=O)N(c1cccc(OP(=O)(Oc3cccc(N4C(=O)c5ccc(*)cc5C4=O)c3)c3ccccc3)c1)C2=O (repeat unit) | 176.50 °C
62 | *CC(*)c1ccc(C#N)cc1 (repeat unit) | 180.00 °C
63 | *CC(C)(C)CS* (repeat unit) | -49.30 °C
64 | *CCc1ccc(*)c(CCCC)c1 (repeat unit) | 20.00 °C
65 | *CCCCCCCCC(=O)N* (repeat unit) | 48.00 °C
66 | *CC(*)c1c([2H])c([2H])c([2H])c([2H])c1[2H] (repeat unit) | 100.00 °C
67 | *CC(*)c1ccc(OCCC(C)C)cc1 (repeat unit) | 57.00 °C
